Measurements reported in PubChem BioAssay AID1648 (Sanford-Burnham Center for Chemical Genomics, 2009).
The source made the active and inactive calls. How the calls were made is not given here.

Biological target: Serine/threonine-protein kinase mTOR (Homo sapiens) (UniProt P42345)
Test: mTOR FRB domain ligand binding – biophysical, NMR (AID 1648)
Conditions: NMR binding to FRB domain, chemical shift

Chain of Serine/threonine-protein kinase mTOR (Homo sapiens) (P42345 2015-2114): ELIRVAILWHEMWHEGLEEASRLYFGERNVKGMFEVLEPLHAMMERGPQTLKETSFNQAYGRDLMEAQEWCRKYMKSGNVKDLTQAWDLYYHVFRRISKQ

Row | SMILES | Kd
1 | NC(=O)Cn1cnc2c(cnn2-c2ccccc2)c1=O | > 4 mM (inactive)
2 | OCc1cc2ccccc2o1 | > 4 mM (inactive)
3 | O=C(NCc1ccccc1)c1ccc[n+]([O-])c1 | > 4 mM (inactive)
4 | Cn1c2c(c(=O)n(C)c1=O)CN(Cc1ccco1)CN2 | > 4 mM (inactive)
5 | O=C(NN1CCOCC1)c1cccs1 | > 4 mM (inactive)
6 | CC(=O)Oc1ccc2c(c1C(C)C)CCC1C(C)(C)CCC[C@]21C (some centres undefined) | > 4 mM (inactive)
7 | O=c1[nH]c(=O)c2[nH]cnc2[nH]1 | > 4 mM (inactive)
8 | COc1ccc(Cl)cc1-c1n[nH]c(=S)n1C | > 4 mM (inactive)
9 | O=C(O)CCCC(=O)Nc1nccs1 | > 4 mM (inactive)
10 | COc1ccc2c(c1)CCCN2C(N)=O | > 4 mM (inactive)
11 | Cc1nc(-c2ccc(C(=O)N3CCOCC3)cc2)cs1 | > 4 mM (inactive)
12 | COc1ccccc1/C=C\C(=O)O | > 4 mM (inactive)
13 | Cc1occc1C(=O)Nc1cc(C(C)(C)C)on1 | > 4 mM (inactive)
14 | O=c1[nH]c(O)c(C=NCc2cccs2)c(=O)[nH]1 | > 4 mM (inactive)
15 | Nc1cccc(CC(=S)N2CCOCC2)c1 | > 4 mM (inactive)
16 | OCc1ccc2nsnc2c1 | > 4 mM (inactive)
17 | CC(=O)c1cc(-c2nc3ccccc3n2C)n(C)c1 | > 4 mM (inactive)
18 | CN1CCOc2cc(C(=O)O)ccc21 | > 4 mM (inactive)
19 | O=C1CS/C(=N/N=C/c2cccs2)N1 | > 4 mM (inactive)
20 | COc1ccccc1Nc1nncc(=O)[nH]1 | > 4 mM (inactive)
21 | c1cncc(-c2nnc(-c3cccnc3)nn2)c1 | > 4 mM (inactive)
22 | O=C(O)CCCCC1SCC2NC(=O)NC21 (centres undefined) | > 4 mM (inactive)
23 | Cc1cc(C)n(/N=C\c2cccs2)c(=O)c1C(N)=O | > 4 mM (inactive)
24 | Cn1c(=O)cc(O)c2ccccc21 | > 4 mM (inactive)

Row | SMILES | Kd
25 | O=C(O)C1=Cc2ccccc2OC1 | > 4 mM (inactive)
26 | COc1ccc2nc(N)sc2n1 | > 4 mM (inactive)
27 | COc1ccc2[nH]cc(CCN(C)C)c2c1 | > 4 mM (inactive)
28 | CCn1nnnc1Oc1ccc(Cl)cc1 | > 4 mM (inactive)
29 | CC(=O)N1CN(C(C)=O)CN(C(C)=O)C1 | > 4 mM (inactive)
30 | NC(=O)CSc1ncnc2ccccc12 | > 4 mM (inactive)
31 | CC(=O)Nc1ccc(C(=O)n2nc(C)cc2C)cc1 | > 4 mM (inactive)
32 | O=c1cccc2n1CC1CC2CN2CCCC[C@@H]12 (some centres undefined) | > 4 mM (inactive)
33 | CN1CCN(C(=S)c2ccc(N(C)C)cc2)CC1 | > 4 mM (inactive)
34 | COC(=O)c1ccc2ncccc2c1 | > 4 mM (inactive)
35 | CN(C)C(=O)C12CCC(C)(C(=O)O1)C2(C)C (centres undefined) | > 4 mM (inactive)
36 | Cc1ccc(SCc2cc(=O)n3[nH]c(C)nc3n2)cc1 | > 4 mM (inactive)
37 | COc1cc(OC)c(-c2nc3cnccc3n2C)cc1OC | > 4 mM (inactive)
38 | Cn1c(SCC(N)=O)nc2ccccc2c1=O | > 4 mM (inactive)
39 | CC(=O)N1CCC(NC2CCCCCC2)CC1 | > 4 mM (inactive)
40 | O=C1CC(=O)N(c2ccccc2)C(=O)N1 | > 4 mM (inactive)
41 | Nc1ccc(S(=O)(=O)N2CCCCC2)cc1 | > 4 mM (inactive)
42 | COC(=O)c1c(OC)cc2c(c1C)Oc1c(Cl)c(OC(C)=O)c(Cl)c(C)c1C(=O)O2 | > 4 mM (inactive)
43 | Cn1cnc2c(=O)[nH]cc([N+](=O)[O-])c21 | > 4 mM (inactive)
44 | O=C(Cc1ccccc1)Nc1c[nH]c(=O)[nH]c1=O | > 4 mM (inactive)
45 | COc1ccc(NC(=O)CCCC(=O)O)c(OC)c1 | > 4 mM (inactive)
46 | Cc1ccc(C(=O)Nn2cnnc2)c(Cl)c1 | > 4 mM (inactive)
47 | COc1c(C)c2c(c(O)c1C/C=C(\C)CCC(=O)O)C(=O)OC2 | > 4 mM (inactive)
48 | O=C(c1ccccc1)c1ccccc1C(=O)N1CCOCC1 | > 4 mM (inactive)

Row | SMILES | Kd
49 | Cn1ncc(C(=O)NC2CCCCC2)c1Cl | > 4 mM (inactive)
50 | CCN1CC2(C)CC[C@H](OC)[C@]34C2[C@H](O)C2(OCO[C@@]25C[C@H](OC)[C@H]2C[C@]3(O)C5[C@H]2O)C14 | > 4 mM (inactive)
51 | CS(=O)(=O)Cc1ccccc1 | > 4 mM (inactive)
52 | CNC(=S)NCCN1CCOCC1 | > 4 mM (inactive)
53 | COC(=O)NCc1cc2cc(Cl)ccc2[nH]1 | > 4 mM (inactive)
54 | CN=C(C)c1c(O)n(C)c(=O)n(C)c1=O | > 4 mM (inactive)
55 | CC(=O)CC(=O)N1C(O)CC[N+]1(C)C (centres undefined) | > 4 mM (inactive)
56 | CC1(C)Cc2nc3[nH]c(=S)[nH]c(=O)c3cc2CO1 | > 4 mM (inactive)
57 | COC(=O)C[C@H]1C(C)(C)C(=O)[C@@H]2CC3=C(CC[C@]4(C)C3=CC(=O)O[C@H]4c3ccoc3)C1(C)C2=O | > 4 mM (inactive)
58 | CC(=O)Nc1ccc(S(=O)(=O)NCC2CCCO2)cc1 (centres undefined) | > 4 mM (inactive)
59 | CNC(=O)C(=O)Nc1ccc(C)c(C)c1 | > 4 mM (inactive)
60 | Cc1occc1C(=O)Nc1ccc2c(c1)CCC2 | > 4 mM (inactive)
61 | ON=c1ccc2nc3ccccc3nc2cc1 | > 4 mM (inactive)
62 | S=c1oc(-c2ccncc2)nn1CCc1ccncc1 | > 4 mM (inactive)
63 | COc1cccc2c(=O)n(CC(N)=O)ccc12 | > 4 mM (inactive)
64 | COc1ccc2c3c([nH]c2c1)C(C)=NCC3 | > 4 mM (inactive)
65 | CCN1CCC2(CC1)CC1CC3C=CC1(CN2C(C)=O)O3 (centres undefined) | > 4 mM (inactive)
66 | O=C(O)c1ccc(CSc2ncn[nH]2)cc1 | > 4 mM (inactive)
67 | c1ccc(-c2csc3ncn4nnnc4c23)cc1 | > 4 mM (inactive)
68 | O=C1CCC(C(=O)NCc2ccc(Cl)cc2)N1 (centres undefined) | > 4 mM (inactive)
69 | CC(=O)O[C@@H]1CC2C(C)(C)[C@H](O)CC[C@]2(C)C2CC[C@@]3(C)[C@H](c4ccoc4)OC(=O)C4OC43[C@@]21C (some centres undefined) | > 4 mM (inactive)
70 | O=C(Cc1c(F)cccc1Cl)Nc1ccncc1 | > 4 mM (inactive)
71 | COc1ccccc1NC(=O)CCC(=O)O | > 4 mM (inactive)
72 | Nc1nc2c3ccccc3nc(Cc3ccccc3)n2n1 | > 4 mM (inactive)

Row | SMILES | Kd
73 | COc1ccc2c(c1)O[C@H]1c3ccc(OC)cc3OC[C@@H]21 | > 4 mM (inactive)
74 | Cn1ncc2c(=O)n(CC(=O)c3ccccc3)cnc21 | > 4 mM (inactive)
75 | COC(=O)c1c(C)cc(OC(=O)c2c(C)cc(O)c(C=O)c2O)c(C)c1O | > 4 mM (inactive)
76 | CCOC(=O)c1c(C)cc(OC)cc1O | > 4 mM (inactive)
77 | O=C(Nc1ccccc1)c1cccc(N2C(=O)CCC2=O)c1 | > 4 mM (inactive)
78 | COc1ccc2c(c1)c1n[nH]c(=S)nc1n2C | > 4 mM (inactive)
79 | Cc1c(-c2ccc(F)cc2)[n+](=O)c2c(n1[O-])CCC2 | > 4 mM (inactive)
80 | O=C(c1ccc2c(c1)OCO2)N1CCC2(CC1)OCCO2 | > 4 mM (inactive)
81 | Cc1cc(-c2ccccc2)nc2cc(C(N)=O)nn12 | > 4 mM (inactive)
82 | O=C1COc2ccc(C(=O)c3ccccc3)cc2CN1 | > 4 mM (inactive)
83 | CN1CCC[C@H]1c1cccnc1 | > 4 mM (inactive)
84 | O=C(/C=C(\O)c1ccccc1)c1ccccc1O | > 4 mM (inactive)
85 | O=C(CO)N/N=C/c1ccccc1F | > 4 mM (inactive)
86 | COc1cc(S(=O)(=O)N(C)C)ccc1F | > 4 mM (inactive)
87 | CN1CC(=O)Nc2ccc([N+](=O)[O-])cc2C1=O | > 4 mM (inactive)
88 | C[C@@H]1CC[C@H]2[C@@H](C)C(=O)O[C@@H]3OC4(C)CC[C@@H]1[C@]32OO4 | > 4 mM (inactive)
89 | CN(C)c1ccc(NC(=O)CC(C(=O)O)N(C)C)cc1 (centres undefined) | > 4 mM (inactive)
90 | O=c1[nH]cnc2nn(-c3ccccc3)nc12 | > 4 mM (inactive)
91 | Cn1c(=O)[nH]c(=O)c2c1ncn2CCN1CCCCC1 | > 4 mM (inactive)
92 | O=C1NC(=O)C(c2ccccc2)C(=O)N1 | > 4 mM (inactive)
93 | O=C(Nn1c(=S)[nH]c2ccccc2c1=O)c1ccncc1 | > 4 mM (inactive)
94 | Cc1nnc(SCC(=O)N2CCCCC2)s1 | > 4 mM (inactive)
95 | Cc1nnc(NC(=O)C(C)Sc2nncn2C)s1 (centres undefined) | > 4 mM (inactive)
96 | O=C1NC(=O)/C(=C/c2ccc(O)cc2)N1 | > 4 mM (inactive)

Row | SMILES | Kd
97 | CC(=O)NC12CC3CC(C)(C1)CC(NC(C)=O)(C3)C2 | > 4 mM (inactive)
98 | CN1CCN(S(=O)(=O)c2ccc(=O)[nH]c2)CC1 | > 4 mM (inactive)
99 | O=C1CN(C(=O)c2ccccc2F)c2ccccc2N1 | > 4 mM (inactive)
100 | NC(=O)C1CCN(c2ncnc(N)c2[N+](=O)[O-])CC1 | > 4 mM (inactive)
101 | Clc1ccccc1-c1nc(-c2cccnc2)no1 | > 4 mM (inactive)
102 | Cn1nnc2cc(CN)ccc21 | > 4 mM (inactive)
103 | N#CC(O[C@@H]1O[C@H](CO[C@@H]2O[C@H](CO)[C@@H](O)[C@H](O)[C@H]2O)[C@@H](O)[C@H](O)[C@H]1O)c1ccccc1 (some centres undefined) | > 4 mM (inactive)
104 | CC1(C)CC(=O)c2sc(N)nc2C1 | > 4 mM (inactive)
105 | O=c1c[n+]([O-])c2ccccc2n1OCc1ccccn1 | > 4 mM (inactive)
106 | O=C1NC(=O)C(=Cc2ccccc2)C(=O)N1 | > 4 mM (inactive)
107 | O=c1c2ccccc2ncn1C1CCCCC1 | > 4 mM (inactive)
108 | O=c1c(O)cc([C@H]2Oc3cc(O)cc(O)c3C[C@H]2O)cc2c([C@H]3Oc4cc(O)cc(O)c4C[C@H]3O)cc(O)c(O)c12 | > 4 mM (inactive)
109 | OCc1ccc2nonc2c1 | > 4 mM (inactive)
110 | O=C(Nc1ccc(O)cc1)N1CCOCC1 | > 4 mM (inactive)
111 | O=C(NCc1ccccc1Cl)c1cnn2cccnc12 | > 4 mM (inactive)
112 | Cc1nn(-c2ccccc2)nc1C(N)=O | > 4 mM (inactive)
113 | O=C(c1nc2ccccc2s1)N1CCSCC1 | > 4 mM (inactive)
114 | O=c1cc(CO)oc(CN2CCCCC2)c1O | > 4 mM (inactive)
115 | O=c1[nH]nnc2sc3c(c12)CCCC3 | > 4 mM (inactive)
116 | CC1(C)CC2(CCO1)NCCN1C(=O)CSC12 (centres undefined) | > 4 mM (inactive)
117 | Cn1c(NCc2ccccc2O)nc2ccccc21 | > 4 mM (inactive)
118 | Nc1scc[n+]1CC(=O)[O-] | > 4 mM (inactive)
119 | O=C(O)Cc1nc(-c2ccncc2)n[nH]1 | > 4 mM (inactive)
